Measurements as given in PubChem BioAssay (NCI).
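Compound exposure: 48 hours, 5 concentrations, 96-well plates. GI50 is the concentration that inhibits growth by half. The concentration for full growth arrest is given as TGI.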

Legend:
Experiment in all cases: growth of human tumour cells (NCI), 48 h
[1] = test system: 786-0 renal
[2] = test system: ACHN renal
[3] = test system: HT29 colon
[4] = test system: MDA-MB-435
[5] = test system: NCI/ADR-RES ovarian
[6] = test system: RPMI-8226 leukemia
[7] = test system: COLO 205 colon
[8] = test system: SR leukemia

Structure (SMILES) | GI50 [1] | TGI [1] | GI50 [2] | TGI [2] | GI50 [3] | TGI [3] | GI50 [4] | TGI [4] | GI50 [5] | TGI [5] | GI50 [6] | TGI [6] | GI50 [7] | TGI [7] | GI50 [8] | TGI [8]
[Cu].c1ccc2c(c1)C1=NC2=NC2=NC(=NC3=NC(=NC4=NC(=N1)c1ccccc14)c1ccccc13)c1ccccc12 | > 100 µM | > 100 µM | > 100 µM | > 100 µM | > 100000 nM | > 100 µM | > 100000 nM | > 100 µM | > 100 µM | > 100 µM | > 100000 nM | > 100 µM |  |  |  | 
CCCN1CCC(Oc2cc(Nc3nc(Nc4cccc(F)c4C(N)=O)c4cc[nH]c4n3)c(OC)cc2Cl)CC1 | 3.65 µM | 7.52 µM | 4.01 µM | 7.99 µM | 565 nM | 1.6 µM | 1350 nM | 5.32 µM | 3.73 µM | 8.57 µM | 2110 nM | 6.35 µM | 417 nM | 0.806 µM | 1020 nM | 6.52 µM
Nc1nc(N)c2cc(S(=O)(=O)c3cccc(C(F)(F)F)c3)ccc2n1 | 3.98 µM | > 100 µM | 4.43 µM | > 100 µM | 2420 nM | > 100 µM | 2120 nM | > 100 µM | 7.79 µM | > 100 µM | 5210 nM | > 100 µM |  |  |  | 
Cc1cc2c(cc1Cl)SC(=Nc1ccc(Cl)cc1)N(S(=O)(=O)c1ccc(Br)s1)S2(=O)=O | 11.7 µM | 24.7 µM | 9.05 µM | 21.1 µM |  |  | 14100 nM | 31.3 µM | 12.2 µM | 26.5 µM | 3700 nM | 21.5 µM | 17800 nM | > 100 µM | 5110 nM | > 100 µM
CC(C)(Sc1cc(C(C)(C)C)c(O)c(C(C)(C)C)c1)Sc1cc(C(C)(C)C)c(O)c(C(C)(C)C)c1 |  | > 100 µM |  | > 100 µM |  | > 100 µM |  | > 100 µM |  | > 100 µM |  | > 100 µM |  | > 100 µM |  | 
CCN(CC)CCN1C(=O)C2C3C(C)=CC(OC(C)=O)(CC3C)C2C1=O (configuration not stated) | > 100 µM | > 100 µM | > 100 µM | > 100 µM | > 100000 nM | > 100 µM | > 100000 nM | > 100 µM | > 100 µM | > 100 µM |  |  | > 100000 nM | > 100 µM | > 100000 nM | > 100 µM
COc1cc(OC)c(OC)cc1/C=C/c1ccccn1 |  | > 10 µM |  | > 10 µM |  | > 10 µM |  | > 10 µM |  | > 10 µM |  |  |  | > 10 µM |  | 
COc1cccc2c1C(=O)c1c(O)c3c(c(O)c1C2=O)C[C@@](O)(/C(C)=N/NC(=O)c1cccc([N+](=O)[O-])c1)C[C@@H]3OC1CC(N)C(O)C(C)O1 (some centres not stated) | 0.306 µM | 5.68 µM | 0.205 µM | 1.65 µM | 238 nM | 11.2 µM |  |  | 5.26 µM | 35.8 µM | 200 nM | 1.86 µM | 208 nM | 1.5 µM | 15.5 nM | 
COc1ccc(-c2cc(=O)c3c(C)ccnc3[nH]2)cc1 | 25.3 µM | > 100 µM |  | > 100 µM |  | 40.5 µM |  |  |  | > 100 µM |  | 53 µM |  | 16.4 µM |  | 
CN1CCN(c2cc(F)c(NC3=C(Cl)C(=O)c4ncccc4C3=O)c(F)c2)CC1 | 1.84 µM | 3.8 µM | 1.53 µM | 2.9 µM | 2000 nM | 4.04 µM | 1660 nM | 3.2 µM | 2.4 µM | 6.53 µM |  |  | 2000 nM | 4.06 µM |  | 
Oc1ccc(CCNc2nc3ccccc3c3[nH]c4ccccc4c23)cc1O | 1.62 µM | 2.98 µM | 2.14 µM | 5.76 µM | 3200 nM | 11.1 µM | 1700 nM | 3.26 µM | 9.15 µM | 32.2 µM |  |  | 2270 nM | 6.8 µM | 1920 nM | 5.74 µM
O=C(O)CN(CCN(CC(=O)O)CC(=O)O)CCN(CC(=O)O)CC(=O)O | 2.54 µM | 6.72 µM | 2.59 µM | 13.6 µM | 3990 nM | 16.2 µM | 3940 nM | 21.8 µM | 3.1 µM | 13.7 µM |  |  | 4550 nM | 16.5 µM |  | 
CCCCCCCCCCCC1=NC(C)(C)CN1C(C)C | 3.57 µM | 13 µM | 4.15 µM | 15.7 µM |  |  | 2000 nM | 5.33 µM | 3.63 µM | 13.4 µM | 1440 nM | 3.66 µM | 1770 nM | 3.15 µM | 1710 nM | 4.32 µM
CCCCCCCCCCCC(c1ccccc1)[N+](C)(C)C (configuration not stated) | 1.63 µM | 3.55 µM | 4.93 µM | 26.1 µM | 296 nM | 2.45 µM | 1350 nM | 3.05 µM | > 100 µM | > 100 µM | 462 nM | 1.92 µM | 825 nM | 2.2 µM |  | 
